The values that follow come from the Deep4Chem optical property database.

Molecules are shown by their SMILES. Where “and” joins values, the source holds several entries; their conditions need not be identical. Equal entries are not always repeated.

This series can be described thus: solvent given as SMILES.
[1] abbreviates: in c1cc(-c2cccc(-n3c4ccccc4c4ccccc43)c2)cc(-n2c3ccccc3c3ccccc32)c1.

For the molecule `COc1cc(/C=C/c2ccncc2)c(OC)cc1C=O`, the emission maximum reads like this: (in C1CCOC1) 448 nm; (in CC#N) 465 nm; (in CN(C)C=O) 463 nm; (in Cc1ccccc1) 446 nm; (in ClCCl) 460 nm.
Regarding `COc1ccc2c(c1)c1cc(OC)ccc1n2-c1ccc(S(=O)(=O)c2ccc(-n3c4ccc(OC)cc4c4cc(OC)ccc43)cc2)cc1`, for the setting “in Cc1ccccc1”, the emission maximum was determined as 445 nm.
Molecule `CC(C)Oc1ccc(C#Cc2ccc3ccc(=O)oc3c2)cc1` gave an emission maximum (in CC#N) of 470 nm.
Consider `O=S(=O)(c1ccc(N(c2ccccc2)c2ccccc2)cc1)c1ccc(S(=O)(=O)c2ccc(N(c3ccccc3)c3ccccc3)cc2)cc1`, for which, for the setting “in Cc1ccccc1”, the emission maximum was 451 nm.
The molecule `COc1ccc(C#Cc2c3ccccc3c(C#Cc3ccc(OC)cc3)c3cc4sc(C)cc4cc23)cc1` registered an emission maximum (in ClCCl) of 538 nm.
As to `CCCCc1cc2cccc[n+]2[b-]2c(-c3cccc4[b-]3[n+]3ccccc3cc4CCCC)cccc21`, where the note is “in C1CCCCC1”, the emission maximum is 451 nm.
For the molecule `COc1ccc(-c2nc3c([nH]2)C2=CC(=O)S[C@]2(C)[C@@]2(C)SC(=O)C=C32)cc1`, for the setting “in CC#N”, the emission maximum worked out at 533 nm.
Under “in ClC(Cl)Cl”, `CCCCCCN1C(=O)c2cccc3cc(/N=C\c4cn(C)c5ccccc45)cc(c23)C1=O` had an emission maximum of 500 nm.
Turning to `Cc1cccc(C)c1N1C(c2ccccc2)=Cc2ccc3ccccc3[n+]2[B-]1(F)F`, for the setting “in ClCCl”, the emission maximum is reported as 468 nm.
For `CCCCC(CC)CN1C(=O)c2cccc3c(C#Cc4ccc(N(c5ccccc5)c5ccc(C#Cc6ccc7c8c(cccc68)C(=O)N(CC(CC)CCCC)C7=O)cc5)cc4)ccc(c23)C1=O` (configuration not stated), the emission maximum reads like this: (in C1CCCCC1) 472 nm; (in C1CCOC1) 631 nm; (in CC#N) 549 nm; (in Cc1ccccc1) 514 nm; (in ClC(Cl)Cl) 587 nm.
Consider `CC(=O)c1c(N[C@@H](CS)C(=O)O)c2ccc(N(C)C)cc2oc1=O`, for which, where the note is “in ClCCl”, the emission maximum was 424 nm.
The same measure, in the same setting: the figure for `COc1ccc2c(c1)CCc1c(-c3ccccc3)c3n(c1-2)[B-](F)(F)[N+]1=C2C=NC=CN2[B-](F)(F)[N+]1=C3` is 576 nm.
For the molecule `COC(=O)c1nc2c(N(C)C)nc(N)nc2n1Cc1ccccc1`, the emission maximum is, setting by setting: (in C1COCCO1) 391 nm; (in CC#N) 399 nm; (in CO) 420 nm; (in ClCCl) 393 nm.
With `COc1ccc(/C=C/C=C/C=C/c2ccc([N+](=O)[O-])cc2)cc1`, the emission maximum was determined as 611 nm (in C1CCOC1); 565 nm (in C1COCCO1); 485 nm (in CC1CCCCC1); 740 nm (in CC#N); 690 nm (in CO); 744 nm (in CS(C)=O). Also, the emission maximum reads like this: (in Cc1ccccc1) 541 nm; (in ClC(Cl)Cl) 681 nm; (in ClCCl) 694 nm.
In the case of `CCCCC1(CCCC)c2cc(C#Cc3ccc(C=C(c4ccccc4)c4ccccc4)cc3)ccc2-c2ccc(C#Cc3ccc(C=C(c4ccccc4)c4ccccc4)cc3)cc21`, for the setting “in C1CCOC1”, the emission maximum is given as 416 nm.
In the case of `CCCCN1/C(=C/C=C/C2=[N+](C)c3ccccc3C2(C)C)Oc2ccccc21`, where the note is “in CS(C)=O”, the emission maximum worked out at 537 nm.
With `CCCCC1=C(CCCC)c2cccc3c2c(cc2nc4ccccc4nc23)O1`, the emission maximum (in ClCCl) was found to be 567 nm.
Where the note is “in C1CCCCC1”, `COC(=O)c1noc(-c2ccccc2)c1Br` had an emission maximum of 344 nm.
Take `Cc1cccc(C2=Cc3ccc4ccccc4[n+]3[B-](F)(F)O2)c1`: the emission maximum (in ClC(Cl)Cl) worked out at 440 nm.
For `CC1=C(c2cccs2)C(C)=[N+]2C1=C(c1ccccc1)c1c(C)c(-c3cccs3)c(C)n1[B-]2(F)F`, the emission maximum is, setting by setting: (in CO) 610 nm; (in Cc1ccccc1) 609 nm; (in ClCCl) 609 nm.
Under “in ClCCl”, `Cc1c2cc3c(-c4ccccc4)c4c(c(-c5ccccc5)c3cc2c2n1[B-](F)(F)[n+]1c(C)c3cc5c(-c6ccccc6)c6c7cccc8cccc(c6c(-c6ccccc6)c5cc3c1=C2c1ccccc1)c87)-c1cccc2cccc-4c12` yielded an emission maximum of 783 nm.
Same read-out and setting: next, `COc1ccc(C2=C(c3ccc(OC)cc3)c3cccc4c5c(cc(c34)O2)=NC2C=C(Br)C(Br)=CC2N=5)cc1` (configuration not stated): 609 nm.
Regarding `O=P1(c2ccccc2)C(c2cc(C(F)(F)F)cc(C(F)(F)F)c2)=Cc2c3ccc4cccc5ccc(c6cc(-c7ccc(N(c8ccccc8)c8ccccc8)cc7)n1c26)c3c45` (configuration not stated), the emission maximum worked out at 558 nm (in C1CCCCC1); 620 nm (in C1CCOC1); 595 nm (in C1COCCO1); 645 nm (in CC#N); 635 nm (in CC(C)=O); 636 nm (in CO). The emission maximum was 586 nm (in Cc1ccccc1), 603 nm (in ClC(Cl)Cl) and 622 nm (in ClCCl).
The molecule `CC(C)(C)c1ccc2c(c1)Sc1cc(C(C)(C)C)ccc1N2c1ccc2c(ccc3nc4ccc5cc(N6c7ccc(C(C)(C)C)cc7Sc7cc(C(C)(C)C)ccc76)ccc5c4nc32)c1` came in with an emission maximum (in C1CCCCC1) of 575 nm and an emission maximum (in Cc1ccccc1) of 682 nm.
For the molecule `COc1ccc(C2CC(c3ccc(O)cc3)=NN2c2ccc(S(N)(=O)=O)cc2)cc1` (configuration not stated), the emission maximum by setting is: (in C1CCOC1) 417 nm; (in C1COCCO1) 418 nm; (in CC#N) 418 nm; (in CC(C)O) 423 nm; (in CCO) 429 nm; (in CCOC(C)=O) 416 nm. For the same molecule, the emission maximum by setting is: (in CN(C)C=O) 422 nm; (in CO) 432 nm; (in CS(C)=O) 425 nm; (in O) 448 nm.
As to `CN(C)c1ccc(C2=C3C=C(c4ccc(C=C(C#N)C#N)cc4)S[C@]34c3ccccc3[C@H]2c2ccccc24)cc1`, for the setting “in ClCCl”, the emission maximum is recorded as 748 nm.
With `CC(C)[Si](C#Cc1c2nsnc2c(C#C[Si](C(C)C)(C(C)C)C(C)C)c2nc3c(ccc4ccccc43)nc12)(C(C)C)C(C)C`, the emission maximum (in CCCCCC) worked out at 617 nm.
Consider `CC(=O)c1c2c(cc3cc(N(C)C)ccc13)CCC2`, for which the emission maximum worked out at 445 nm (in C1CCCCC1); 505 nm (in C1CCOC1); 495 nm (in C1COCCO1); 545 nm (in CC#N); 605 nm (in CCO); 558 nm (in CS(C)=O). Besides, the emission maximum stood at 481 nm (in Cc1ccccc1), 511 nm (in ClC(Cl)Cl) and 509 nm (in ClCCl).
As for `CCOC(=O)COc1ccc(/C=C/C2=[N+]3C(=Cc4c5ccccc5c(-c5[nH]c(C)cc5C)n4[B-]3(F)F)C(C)=C2)cc1`, the emission maximum (in ClCCl) is on record as 705 nm.
On the same count and under the same terms, the figure for `COc1ccc(N(c2ccc(OC)cc2)c2ccc3c(c2)C2(c4cc(N(c5ccc(OC)cc5)c5ccc(OC)cc5)ccc4C=C3)c3ccccc3-c3ccccc32)cc1` is 483 nm.
Turning to `N#Cc1cc(-c2ccc(N3c4ccccc4Oc4ccccc43)cc2)c(-c2ccc(N3c4ccccc4Oc4ccccc43)cc2)cc1C#N`, the emission maximum was found to be 577 nm (in Cc1ccccc1) and 540 nm under setting [1].
Consider `CN(C)c1ccc2c(c1)COc1c-2oc2ccccc2c1=O`, for which the emission maximum reads like this: (in C1CCCCC1) 411.43 nm; (in CC#N) 489 nm and 491.43 nm; (in CCOC(C)=O) 464 nm and 461.07 nm; (in Cc1ccccc1) 441 nm.
On to `CC[N+](CC)=c1ccc2c(C(F)(F)F)c3c(oc-2c1)-c1ccc(N(C)C)cc1CC3`, for which the emission maximum is recorded as 425 nm (in CCO), 713 nm (in ClCCl) and 716 nm (in O).
Under “in CN(C)C=O”, `NCCCCCCCCCCCCN1C(=O)c2ccc3c4ccc5c6c(ccc(c7ccc(c2c37)C1=O)c64)C(=O)NC5=O` gave an emission maximum of 534 nm.
With `CCN(CC)c1ccc2c(-c3ccccc3C(=O)O)c3c([o+]c2c1)/C(=C/Nc1ccccc1)CCC3`, the emission maximum by setting is: (in CCO) 641 nm; (in ClC(Cl)Cl) 644 nm; (in ClCCl) 644 nm.
Consider `CC1(C)c2ccccc2N(c2ccc3nc4c5ccc(N6c7ccccc7C(C)(C)c7ccccc76)cc5c5cc(N6c7ccccc7C(C)(C)c7ccccc76)ccc5c4nc3c2)c2ccccc21`, for which the emission maximum reads like this: (in Cc1ccccc1) 605 nm; under setting [1], 590 nm.
For the molecule `Cc1sc(-c2ccc(-c3nc(-c4ccccc4)c(-c4ccccc4)[nH]3)cc2)c(C)c1C1=C(c2c(C)n(C)c3ccccc23)C(F)(F)C(F)(F)C1(F)F`, for the setting “in C1CCOC1”, the emission maximum was found to be 392 nm.
Consider `CC1(C)c2ccccc2-c2sc3ccccc3c21`, for which the emission maximum (in ClCCl) turned out to be 354 nm.
In the case of `C(=C\c1ccc(N(c2ccccc2)c2ccccc2)cc1)/c1ccccc1`, the emission maximum runs as follows: (in CC#N) 455 nm; (in CCCCCC) 395 nm.
For the molecule `Cc1ccccc1-c1ccccc1C`, the emission maximum (in C1CCCCC1) came to 318.98 nm.
For the molecule `COc1cccc2cc(-c3ccc([N+](=O)[O-])cc3)c(=N)oc12`, the emission maximum is 374 nm (in C1CCOC1), 366 nm (in CC#N), 392 nm (in CS(C)=O) and 380 nm (in ClC(Cl)Cl).
In the case of `N#C/C(=C\c1ccc(C=C(c2ccccc2)c2ccccc2)cc1)c1ccccc1`, where the note is “in C1CCOC1”, the emission maximum was 468 nm.
Take `CC1(C)CC[N+]2=c3c(cc4c(c31)Oc1cc3c(cc1C=4c1ccccc1C(=O)O)C(c1ccccc1C(=O)O)=c1cc4c5c(c1O3)C(C)(C)CC[N+]=5CCC4)CCC2`: under “in ClC(Cl)Cl”, the emission maximum was 635 nm.
`FC(F)(F)c1ccc(B2c3ccccc3Nc3ccccc32)c(C(F)(F)F)c1` registered an emission maximum (in ClCCl) of 407 nm.
With `CCCCCCCCC1(CCCCCCCC)c2cc(-c3ccc([N+](=O)[O-])cc3)ccc2-c2ccc(-c3ccc([N+](=O)[O-])cc3)cc21`, the emission maximum is, setting by setting: (in CN(C)C=O) 569 nm; (in CS(C)=O) 589 nm; (in ClC(Cl)Cl) 538 nm.
